Results taken from patent US20260315487A1, “IKK-ALPHA INHIBITORS” (Cancer Research Technology Limited, priority 2023, published 2026).

Tests used:
haspin = target: T1, haspin (Homo sapiens, UniProt Q8TF76); assay: kinome profiling at 1 μM, haspin; assay type: biochemical
T1 sequence (Q8TF76 1-798): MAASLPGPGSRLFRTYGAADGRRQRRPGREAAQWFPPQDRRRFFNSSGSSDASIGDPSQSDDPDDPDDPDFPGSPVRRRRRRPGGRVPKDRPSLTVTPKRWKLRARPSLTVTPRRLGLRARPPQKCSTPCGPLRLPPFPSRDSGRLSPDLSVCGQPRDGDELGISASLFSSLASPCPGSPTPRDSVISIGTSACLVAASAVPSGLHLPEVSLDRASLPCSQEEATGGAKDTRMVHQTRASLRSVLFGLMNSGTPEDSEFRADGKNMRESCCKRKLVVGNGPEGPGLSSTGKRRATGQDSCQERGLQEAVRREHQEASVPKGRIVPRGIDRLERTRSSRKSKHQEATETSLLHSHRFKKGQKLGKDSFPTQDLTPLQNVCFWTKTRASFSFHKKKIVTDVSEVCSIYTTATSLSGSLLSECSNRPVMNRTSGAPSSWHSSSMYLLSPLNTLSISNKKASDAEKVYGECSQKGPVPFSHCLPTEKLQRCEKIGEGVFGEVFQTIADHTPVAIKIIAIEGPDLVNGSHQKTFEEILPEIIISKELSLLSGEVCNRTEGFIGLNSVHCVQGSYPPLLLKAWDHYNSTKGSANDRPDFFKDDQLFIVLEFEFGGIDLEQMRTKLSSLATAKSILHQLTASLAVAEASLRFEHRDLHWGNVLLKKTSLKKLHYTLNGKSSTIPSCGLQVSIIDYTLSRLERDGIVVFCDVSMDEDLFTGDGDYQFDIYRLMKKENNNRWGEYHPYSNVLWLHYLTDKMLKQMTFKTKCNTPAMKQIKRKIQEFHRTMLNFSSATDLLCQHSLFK
Source text: We profiled three compounds from the series across the kinome (FIG. 11). […] To identify the structural drivers for CDK inhibition, we obtained X-ray crystal structures of 5 y and 6 g SU1336 and SU1349 with CDK-2 (FIG. 12A) to potentially identify possible routes towards introducing selectivity for IKKα over the CDK enzymes as well as IKKβ. […] All three derivatives form complexes with CDK2 with the pyrrolo[2,3 -b]pyridine H-bonding to GK+3 (Leu 83 ) and the aminoindazole projected towards the G-loop (FIG. 12A), forming H-bonds with Glu 51 and Lys 33 at the back of the pocket. The adoption of the 4 SU1253 -type orientation, rather than the flipped pose observed in IKKα, is probably facilitated by Tr-stacking between the aminoindazole and the GK residue, which in the CDKs is Phe, rather than Met. […] For 6 g SU1349, the hydrophobic pendant benzyloxy group points out into solvent, but can form face-to-edge Tr-Tr interactions with Phe 82 and His 84 from the hinge. Exchanging the hydrophobic pendant benzyloxy group for the morpholinoethyl-containing substituent in 5 y SU1336 removes any direct interaction with these hinge residues, preferring to sit in a more solvent-exposed position, as befits a basic side chain that will be protonated at physiological pH (FIG. 12B).

Turbidimetric solubility = assay type: physicochemical
IKKα over IKKβ = assay: selectivity for IKKα over IKKβ from the kinase assay; assay type: biochemical
Source text: To examine the pyrrolo[2,3 -b]pyridines as an alternative scaffold, we adopted the AIPP core because it had similar dimensions to 1 SU909, with HBD/HBA motifs positioned at the scaffold extremities to interact with both the hinge region and the G-loop wall of IKKα, a rationale we had previously proposed as the basis for imparting selectivity. A preliminary set of AIPP derivatives was designed to explore its utility as an IKK-targeting scaffold, whilst incorporating additional functionality through which to introduce selectivity for the IKKα isoform (2-4 SU1087, SU1266 and SU1253; FIG. 3). This was achieved by initially adopting two different approaches: either appending a hydrophobic moiety to the pyrrolo[2,3 -b]pyridine motif as a fused form to afford the tricyclic derivatives 2 and 3 SU1266 and SU1087, or as a phenyl substituent to introduce flexibility with the central pyrrolo[2,3 -b]pyridine moiety in 4 SU1253 . […] The pyrrolo[2,3 -b]pyridine was bound to the hinge region in the classical HBA/HBD motif with the GK+3 NH and C═O backbone, whilst the aminoindazole projected towards the top of the pocket to interact with the G-loop (FIG. 4A). […] In both isoforms, the 2 -phenyl moiety was oriented out from the hinge towards the exposed solvent area.
To shift the selectivity profile towards IKKα, we selected 4 SU1253 for structural optimization based on the notion that sigma-bond rotation between the phenyl ring and the pyrrolo[2,3 -b]pyridine would inbuild the flexibility required to engage with the three dimensional array of residues nearby to exploit differences between the two isoforms. Furthermore, this would enable the inclusion of moieties that could also project into solvent and address solubility considerations. Small groups (NH2, OH, OMe, OEt and F) were initially introduced into the phenyl ring to evaluate their impact on the selectivity profile against both IKKs (5 a-g SU1354 -SU1373, Table 2 ). Our goal was to achieve a 1:50 selectivity ratio of IKKα to IKKβ, with a minimum IKKβ inhibitory Ki of 500 nM.

[1] = in vivo murine PK in CD1 mice; parameters: species or system mouse; conditions: 10 mg/kg, mean
Protocol: […] Prior formulation/solubility assessment was performed in routine excipients e.g., DMSO: cyclodextrin or HMPC/Tween 80 . Intravenous time points were taken at 5 min, 15 min, 30 min, 1, 2, 4, 8, and 24 hours and intraperitoneal time points were taken at 15 min, 30 min, 1, 2, 4, 6, 8, and 24 hours. Blood samples were prepared by protein precipitation with methanol or acetonitrile containing internal standard and then measured quantitative bioanalysis by LC-MS/MS.

SMILES | inhibition at 1 µM (haspin) | solubility, in words (Turbidimetric solubility) | selectivity for IKKα over IKKβ, in words (IKKα over IKKβ) | selectivity for IKKα over IKKβ (IKKα over IKKβ; ratio of Ki) | Cmax ([1]; I.P.) | F ([1]; I.P.) | Terminal t1/2 ([1]; I.P.) | Tmax ([1]; I.P.) | Clearance ([1]; I.V.) | Terminal t1/2 ([1]; I.V.) | Vss ([1]; I.V.)
Nc1n[nH]c2ccc(-c3ccnc4[nH]c(-c5cccc(OCc6ccccc6)c5)cc34)cc12 [5r SU1261, 5-(2-(3-(benzyloxy)phenyl)-1 H-pyrrolo[2,3-b]pyridin-4-yl)-1 H-indazol-3-amine] | > 80% |  |  |  |  |  |  |  |  |  | 
Nc1n[nH]c2ccc(-c3ccnc4[nH]c(-c5ccnc(OCc6ccccc6)c5)cc34)cc12 [6g SU1349, 5-(2-(2-(Benzyloxy)pyridin-4-yl)-1 H-pyrrolo[2,3-b]pyridin-4-yl)-1 H-indazol-3-amine] |  | most soluble in the series that displayed selectivity | essential selectivity profile | 209 fold | 199 ng/mL | 9.3% | 3.02 h | 0.44 h | 16.7 mL/min/kg | 4.18 h | 0.39 L/kg
